US20110224297A1, “Methods of administering prostratin and structural analogs thereof” (priority 2008, published 2011)
Like-named read-outs stand apart in the source and are kept apart here.

How the values were obtained:
[1] = Stability in the formulation vehicle for in vivo studies; format: physicochemical; settings: 10% DMSO: 10% Cremophor: 80%:0.9% Saline; even at 37° C. for at least 2 hr
Experimental: Drug was dissolved in vehicle (10% DMSO: 10% Cremophor: 80%:0.9% Saline) and then incubated at four different temperatures (37° C., RT, 4° C., and −20° C.) for up to 2 hr. Prostratin is stable in this formulation even at 37° C. for at least 2 hr.

[2] = In vitro metabolism in monkey liver microsomes; format: in vitro ADME
Description: (§1) In vitro metabolism of prostratin was investigated using mouse, rat, monkey, and human liver microsomes (Gentest). […] Attempts to identify the metabolite by LC/MS/MS were unsuccessful due to the low amounts present in the reaction mixtures (FIG. 1).

[3] = In vitro metabolism in human liver microsomes; format: in vitro ADME
Description: as §1

[4] = system: latently infected ACH-2 cells; test: HIV expression (reverse transcriptase activity in supernatant) in latently infected ACH-2 cells; format: cell-based
Experimental: The effect of prostratin on virus replication was assessed in latently infected ACH-2 and U1 cells by measuring the accumulation of reverse transcriptase activity in the supernatant of stimulated cells (Gustafson et al., 1992, J Med Chem 35(11): 1978-86).
Briefly, 4×10^4 cells in 100 μl fresh medium were mixed with another 100 μl of medium with or without prostratin or PMA in a 96-well microtiter plate. Plates were incubated for 24-72 h at 37° C. Following incubation, supernatants were harvested, centrifuged (to remove any residual cells) and tested for reverse transcriptase activity as previously described (Gustafson et al., 1992, J Med Chem 35(11): 1978-86).
In these experiments, two concentrations of cells were tested (40,000 and 100,000 cells/well). It is noteworthy that the basal levels of reverse transcriptase activities were much higher in ACH-2 cells than in U1 cells.

[5] = system: resting CD4+ T cells derived from HIV positive patients; test: Induction of HIV-1 expression in resting CD4+ T cells from HIV positive patients on HAART (p24, co-culture); format: cell-based, human
Experimental: The ability of prostratin to induce HIV-1 expression in cultures of highly purified resting CD4+ T cells derived from six HIV positive patients on HAART therapy with undetectable plasma viral load (<50 copies/ml) and CD4 cell counts above 350 cells/mm^3 was evaluated. PBMCs were separated using Ficol Hypaque gradient and resting CD4+ T cells were purified using commercially available CD4+ T cell isolation kit (Miltenyi Biotec) Immediately after purification, resting CD4+ T cells were treated for 3 days with two antiretrovirals to which the patient had not previously been exposed. Antiretrovirals were used at concentrations 10 times the 50% inhibitory concentration for wild-type HIV-1 to ensure elimination of any actively replicating virus. Three days after in vitro incubation with antiretrovirals, cells were washed and incubated for 5 h, 24 h, or 48 h with prostratin (50-500 ng/ml), in the absence or presence of 1 mM valproic acid (sodium salt, SIGMA), 10 μg/ml PHA (SIGMA), 50 U IL-2/ml (AIDS depository of reagents, NIH), or in the absence of drugs. At the end of each incubation period, cells were co-cultured with CD8-depleted PBMCs from healthy donors. P24 was measured at days 0, 4, 7, 14, 21, 28, 35 and 42 days.

[6] = Solubility limit after dosing in culture medium; format: physicochemical; settings: plasma or biological fluid, kinetic from dmso stock, dosing volume of 1%
Experimental: Dimethylsulfoxide (DMSO) was the vehicle of choice for this study. […] The stock solution and its dilutions were dosed using a dosing volume of 1% (10 μL/ml) and the vehicle control cultures were treated with 10.0 μL/ml of DMSO.

[7] = Dose-range finding study in monkeys and determination of MTD; format: in vivo, rhesus macaque monkeys; settings: rhesus monkey, in vivo
Experimental: (§2) After a suitable wash-out period (15-20 days), monkeys that previously received 0.1 mg/kg, were administered a dose of 0.6 mg/kg, and those that previously received 0.4 mg/kg, were administered a second dose of 0.4 mg/kg. Blood was collected as before for clinical pathology and cytokine assay analysis. There was no mortality in this study. However both animals receiving 0.6 mg/kg prostratin required more time (2-4 times as much) to recover from Ketamine (used as a chemical restraint while weighing and dosing) after the second dosing compared with the initial doses. On day 3, all monkeys had elevated (2-3 fold) fibrinogen levels and there was evidence of dose-dependent hepatotoxicity.

rhesus macaque monkeys = test: as above; format: in vivo
Experimental: as §2

rats = test: Tolerability of intravenous infusion and oral doses in rats; format: in vivo
Experimental: In order to find out the best route of administration and the correct concentration of prostratin, the drug was administered as an intravenous infusion over three hours as well as a single and twice oral administration to 3 groups of rats. The goal of this experiment was to find out if greater amounts of prostratin can be administered over a longer period of time. This would enable obtaining median higher concentrations in the blood for a longer period of time that would be close to effective concentration found in in vitro studies.
The oral doses were estimated based on a maximum tolerated i.v. dose of 0.4 mg/kg from the DART work in rats, but an oral bio-availability of only 29%. Thus, the maximum tolerated i.v. dose was multiplied by three (i.e., 0.4 mg/kg times 3 equals 1.2 mg/kg as the equivalent oral dose). The purpose of the two lower oral doses (both 0.8 mg/kg, therefore a total of 1.6 mg/kg) and the infusion (0.8 mg/kg over three hours) was to see if the maximum tolerated dose could be exceeded by dividing up the oral into two times 75% the max tolerated dose or as an infusion over 3 hours.

CC(=O)O[C@@]12C[C@@H](C)[C@@]3(O)[C@@H](C=C(CO)C[C@]4(O)C(=O)C(C)=C[C@@H]34)[C@@H]1C2(C)C [prostratin, 12-deoxyphorbol 13-acetate]
stability in formulation [1]: stable
metabolism (time-dependent loss of parent compound) [2]: greatest
metabolism (time-dependent loss of parent compound) [3]: substantially less
lowest dose to get a reliable increase in reverse transcriptase activity [4]: 50 ng/mL
stimulation time at which sizeable reverse transcriptase activity is detected [4]: 24 h
short incubation (pulsed stimulation) time leading to detectable reverse transcriptase activity ([4]; none after 1 h and 4 h): 6 h
HIV-1 expression in resting T cells ([5]; 50 ng/ml): HIV-1 activation events, although with lower frequency
time of co-culture with CD8-depleted PBMC after which robust HIV replication was observed ([5]; 24 h with 150 ng/ml): 2-4 weeks
HIV-1 expression in resting T cells ([5]; ex-vivo treatment for 24 h with 150 ng/ml): efficient activation of the latent reservoir
solubility [6]: < 3500 µg/mL
MTD at 15 days ([7]; both sexes, iv, monkeys, single bolus i.v. dose, read-out: MTD): 0.4 to 0.6 mg/kg
MTD at 15 days ([7]; intravenous, as restated in Example 13, read-out: MTD later found in monkeys at NIH): 0.2 to 0.4 mg/kg
time to recover from Ketamine compared with the initial doses (rhesus macaque monkeys; 0.6 mg/kg): 2-4 times
increase in level of ALT and AST over baseline (rhesus macaque monkeys; 0.6 mg/kg dose group, day 3): 25-50 fold
time after which plasma drug level is undetectable (rhesus macaque monkeys; 0.1 and 0.4 mg/kg i.v. bolus, day 1): 4 h
reversibility of toxicities (rhesus macaque monkeys; all clinical pathology measurements normal by day 15): reversible
elevation of fibrinogen levels (rhesus macaque monkeys; day 3, all monkeys): 2-3 fold
CK and LD levels (rhesus macaque monkeys; day 3, dose-dependent): increases
level of IL-6 (rhesus macaque monkeys; female monkeys, 0.4 and 0.6 mg/kg): increase
mortality (rhesus macaque monkeys; i.v. bolus 0.1, 0.4 and 0.6 mg/kg): no mortality
toxicity at the initial doses (rhesus macaque monkeys; single intravenous bolus 0.1 or 0.4 mg/kg): absence of toxicity
Results (tolerability) (rats; female rats, 0.8 mg/kg I.V. infusion, 3 hours): All animals died
Results (tolerability) (rats; female rats, 1.2 mg/kg, one oral dose): 2 out of 3 animals died
Results (tolerability) (rats; female rats, 1.8 mg/kg first oral dose followed by 1.0 mg/kg after 4 hours): 2 died after first dose,
Results (tolerability) (rats; male rats, 1.8 mg/kg, two oral doses 4 hours apart): All animals are alive
Results (tolerability) (rats; male rats, 2.4 mg/kg, one oral dose): All animals are alive
